Test results reported in patent publication US8633188B2, “Aminodihydrothiazine derivatives” (Shionogi & Co., Ltd., priority 2005, dated 2014).

Target: recombinant human BACE-1 protein (Homo sapiens (Human), UniProt P56817)
Assay: Measurement of inhibition of β-secretase activity (fluorescence-quenched peptide substrate, time-resolved fluorescence)
Type: biochemical
Conditions: recombinant human BACE-1 7.4 nM, substrate peptide 18 nM, pH 5.0, 3 h at 30° C.; same test as table 170
Description: Zero point five μL of the test compounds (dissolved in N,N′-dimethylsulfoxide) were incubated with 48.5 μL of the fluorescence-quenched peptide substrate solution (Biotin-XSEVNLDAEFRHDSGC-Eu: X=εe-amino-n-capronic acid,Eu=Europium cryptate) and 1 μL of recombinant human BACE-1 protein (R&D systems) for 3 h at 30° C. in the 96 well half-area plate (black color plate,Costar). The substrate peptide was synthesized by reacting with Biotin-XSEVNLDAEFRHDSGC (Peptide Institute) and Cryptate TBPCOOH mono SMP (CIS bio international). […] The enzymatic reaction was performed in sodium acetate buffer (50 mM sodium acetate (pH 5.0), 0.008% Triton X-100). After the reaction, a 50 μL of 8.0 μg/mL Streptavidin-XL665 (CIS bio international) dissolved in phosphate buffer (150 mM K2HPO4—KH2PO4 (pH 7.0), 0.008% Triton X-100, 0.8 M KF) was add to each well and incubated for 1 h at 30° C.

recombinant human BACE-1 protein, sequence (P56817 46-501): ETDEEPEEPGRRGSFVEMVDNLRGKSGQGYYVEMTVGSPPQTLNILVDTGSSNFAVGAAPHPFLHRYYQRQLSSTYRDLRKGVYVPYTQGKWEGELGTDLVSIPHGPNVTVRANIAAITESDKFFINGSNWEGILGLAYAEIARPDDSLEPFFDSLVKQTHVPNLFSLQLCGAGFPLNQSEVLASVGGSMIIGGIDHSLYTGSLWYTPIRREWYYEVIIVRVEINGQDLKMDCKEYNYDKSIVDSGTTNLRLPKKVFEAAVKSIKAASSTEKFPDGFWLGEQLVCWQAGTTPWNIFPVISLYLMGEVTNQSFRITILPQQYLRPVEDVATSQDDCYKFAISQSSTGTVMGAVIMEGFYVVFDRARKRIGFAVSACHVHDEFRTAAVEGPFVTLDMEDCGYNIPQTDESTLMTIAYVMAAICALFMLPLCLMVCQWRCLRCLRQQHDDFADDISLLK

Row | IC50 | SMILES
1 | < 100 µM | CC1(c2cccc(NC(=O)c3ncc(Br)cn3)c2)CCSC(N)=N1 (stereo not drawn) [Compound 900]
2 | < 100 µM | CC1(c2cccc(NC(=O)c3ccnnc3)c2)CCSC(N)=N1 (stereo not drawn) [Compound 1274]

The remaining lines, values behind:

Row | SMILES | IC50
3 | CC1(c2cccc(CCC(=O)Nc3ccccc3)c2)CCSC(N)=N1 (stereo not drawn) [Compound 732] | < 100 µM
4 | CC1(c2cccc(NC(=O)/C=C/c3cccc(F)c3)c2)CCSC(N)=N1 (stereo not drawn) [Compound 36] | < 100 µM
5 | CC1(c2cc(NC(=O)c3ccc(Cl)cc3)cc(S(C)(=O)=O)c2)CCSC(N)=N1 (stereo not drawn) [Compound 30] | < 100 µM
6 | CC1(c2cc(NC(=O)c3ccc(Br)cc3)cc(S(C)(=O)=O)c2)CCSC(N)=N1 (stereo not drawn) [Compound 71] | < 100 µM

Tested on: not given
Assay: not given
Conditions: not given

Row | melting point | SMILES
7 | 205 to 207 °C | CC1(c2cccc(NC(=O)c3ncc(Br)cn3)c2)CCSC(N)=N1 (stereo not drawn) [Compound 900]
8 | 194 to 195 °C | CC1(c2ccccc2)CCOC(N)=N1.Cl (stereo not drawn)
9 | 181 to 183 °C | CC1(c2cccc(NC(=O)c3ccc(C4CC4)cn3)c2)CCSC(N)=N1 (stereo not drawn) [Compound 738]
